Results reported in patent US9408856B2, “Topical steroidal formulations” (Temple University—Of The Commonwealth System of Higher …, priority 2008, dated 2016).
Values joined by “and” are separate entries in the source; they are usually repeats but may differ in a detail not shown here. Equal values may be shown once.

What was measured:
[1] = test system: TPA-stimulated epidermal DNA synthesis in mouse epidermis; experiment: TPA-induced epidermal DNA synthesis in mouse epidermis, oral fluasterone; type: in vivo, CD-1 mice; settings: 20 h
Procedure: In dose-response experiments the anti-hyperplastic efficacy of fluasterone in TPA-treated mouse epidermis to determine bioavailability following different routes of administration was measured. Mice were treated with a single dose of fluasterone (either orally, subcutaneously, or transdermally) followed by a single application of TPA to the shaved back one hour latter. In case of transdermal administration, fluasterone is applied in a topical formulation to the shaved abdomen to allow for systemic absorption to the back of the animal. Twenty hours after TPA application, the mice are injected with 60 μCi of [3H] thymidine, sacrificed 20 minutes later, and a 2×2 cm2 of skin from the shaved back is excised and processed for the determination of the amount of [3H] thymidine incorporated per unit of epidermal DNA. (Hennings et. al., Cancer Res. 28:543-552, 1968).
Fluasterone suspensions were prepared using sesame oil as vehicle. Micronized fluasterone was obtained from Pharmaceutics International, Inc. Five suspensions were prepared—100 mg/kg (13 mg/mL), 200 mg/kg (26.5 mg/mL), 400 mg/kg (52.4 mg/mL), 800 mg/kg (105.5 mg/mL), and 1200 mg/kg (158.3 mg/mL). The fluasterone for each suspension was weighed, placed into a plastic vial, and the required volume of sesame oil was added to the vial. The fluasterone was suspended in the sesame oil with the use of a Tekmar Tissumizer. Magnetic stirrer bars were added to the various suspensions which were stirred on a magnetic stirrer prior to treatment. Control and TPA groups received sesame oil alone.
Female CD-1 mice were obtained from Charles River Laboratories, Wilmington, Mass. at 35-37 days of age.
The mice were housed three per cage in plastic shoebox cages on Alphacel bedding with 12 hours of alternating light and dark in the CAF Animal Facility. The mice had ad libitum access to Purina 5.015 chow and acidified tap water (pH≦2.6). The mice were shaved, weighed and distributed into groups of three. • Control The mice were treated orally with 0.2 mL of sesame oil. One hour after treatment with sesame oil, the mice were treated topically with 0.2 mL of acetone. • TPA The mice were treated orally with 0.2 mL of sesame oil. […] One hour after treatment with fluasterone, the mice were treated topically with 2 μg of TPA in 0.2 mL of acetone.
The mice were sacrificed 20 hours after treatment by an overdose of CO2. Twenty minutes prior to sacrifice, the mice were injected with 60 μCi of [^3H]thymidine (Amersham). The mice were treated with a depilatory to remove any residual hair. A 2×2 cm^2 piece of skin was excised, placed in ice water for 30 seconds, then in 55° C. water for 30 seconds, then in ice water again for 30 seconds. The epidermis was s raped off using a scalpel and the scrapings were placed into ice cold 0.4N TCA. The scrapings were homogenized using a Tekmar Tissumizer (80% power for 30 seconds). The homogenates were centrifuged for 20 minutes at 3,000×g. The precipitates were washed 3× with 0.2N TCA. The TCA was removed and the precipitates were stored at −20° C. overnight. The next day, the precipitates were washed 2× with absolute ethanol. The DNA in each sample was hydrolyzed with 0.5N TCA for 30 minutes at 90°. The tubes were centrifuged for 20 minutes at 3000×g. A 0.2 mL aliquot of each hydrolysate was counted in a LKB Rackbeta scintillation counter using Scintiverse II BD as the counting medium. DNA content was determined by the Burton diphenylamine assay.
102.7 mg of Micronized fluasterone I was weighed using a Mettler AE-50 balance, transferred to a glass scintillation vial, and homogenized in 6.0 mL of carboxymethylcellulose-Tween 80 using a Tekmar Tissumizer (200 mg/kg micronized I suspension, 200 MI). 88.4 mg of micronized fluasterone II was then weighed, transferred to a glass scintillation vial, and homogenized in 5.2 mL of CMC-Tween using a Tekmar Tissumizer (200 mg/kg micronized II suspension, 200 MII).

[2] = test system: TPA-stimulated epidermal DNA synthesis in mouse epidermis; experiment: TPA-induced epidermal DNA synthesis in mouse epidermis, transdermal fluasterone; type: in vivo, CD-1 mice; settings: 20 h
[3] = Table 18, TPA 2 μg topical after CMC-Tween p.o. only, single mice
[4] = TPA 2 μg (back) after Cremophor EL vehicle only, single mice
[5] = TPA 2 μg (back) after Cremophor EL:ethanol (50:50 v/v) vehicle only, single mice
[6] = TPA 2 μg (back) after Tween 80:ethanol (50:50 v/v) vehicle only, single mice
[7] = TPA 2 μg (back) after carbitol vehicle only, single mice
[8] = TPA 2 μg (back) after ethanol:limonene:isopropyl myristate (81:15:4) vehicle only, single mice
[9] = TPA 2 μg (back) after ethanol:limonene:isopropyl myristate (81:15:4) vehicle only, single mice and group mean
[10] = TPA 2 μg (back) after ethanol:water:Tween 80 (76:19:5) vehicle only, single mice
[11] = TPA 2 μg (back) after ethanol:water:Tween 80 (76:19:5) vehicle only, single mice and group mean

Compound: CCCCCCCCCCCCCC(=O)O[C@@H]1[C@@H](C)[C@@]2(O)[C@@H](C=C(CO)C[C@]3(O)C(=O)C(C)=C[C@@H]23)[C@@H]2C(C)(C)[C@]12OC(C)=O [TPA, 12-O-tetradecanoylphorbol-13-acetate, reference compound]
- μg DNA ([1]; Table 4, TPA 2 μg topical, sesame oil p.o. only, 2×2 cm2 skin, group mean): 14.1 ± 1.3 µg
- cpm/μg DNA ([1]; Table 4, TPA 2 μg topical, sesame oil p.o. only, group mean): 641.5 ± 115.2 cpm/μg DNA
- corrected cpm [1, 3]: 9,877 cpm and 8,235 cpm and 8,699 cpm
- μg DNA/0.2 ml [1, 3]: 28.0 μg DNA/0.2 ml and 31.9 μg DNA/0.2 ml and 28.2 μg DNA/0.2 ml
- cpm/μg DNA ([1]; Table 18, TPA 2 μg topical after CMC-Tween p.o. only, single mice and group mean): 351.6 cpm/μg DNA and 258.6 cpm/μg DNA and 308.5 cpm/μg DNA
- cpm/μg DNA ([1]; Table 18, TPA 2 μg topical after CMC-Tween p.o. only, single mice and group mean, group mean): 306.1 ± 46.8 cpm/μg DNA
- μg DNA ([1]; Table 20, TPA 2 μg topical after sesame oil and suspension vehicle p.o. only, group mean): 13.9 ± 0.3 µg
- corrected cpm [2, 4]: 16,842 cpm and 13,849 cpm
- cpm [2, 4]: 16,877 cpm and 13,884 cpm
- μg DNA/0.2 mL [2, 4]: 28.7 μg DNA/0.2 mL and 30.4 μg DNA/0.2 mL
- cpm/μg DNA ([2]; TPA 2 μg (back) after Cremophor EL vehicle only, single mice and group mean): 586.8 cpm/μg DNA and 455.6 cpm/μg DNA and 521.2 ± 92.8 cpm/μg DNA
- corrected cpm [2, 5]: 54,709 cpm and 54,308 cpm
- cpm [2, 5]: 54,744 cpm and 54,343 cpm
- μg DNA/0.2 [2, 5]: 36.9 μg DNA/0.2 and 35.7 μg DNA/0.2
- cpm/μg DNA ([2]; TPA 2 μg (back) after Cremophor EL:ethanol (50:50 v/v) vehicle only, single mice and group mean): 1,482.6 cpm/μg DNA and 1,521.2 cpm/μg DNA
- corrected cpm [2, 6]: 4,276 cpm and 3,114 cpm
- cpm [2, 6]: 4,301 cpm and 3,139 cpm
- μg DNA/0.2 [2, 6]: 17.5 μg DNA/0.2 and 18.6 μg DNA/0.2
- cpm/μg DNA ([2]; TPA 2 μg (back) after Tween 80:ethanol (50:50 v/v) vehicle only, single mice and group mean): 244.3 cpm/μg DNA and 167.4 cpm/μg DNA
- corrected cpm [2, 7]: 6,729 cpm and 7,496 cpm
- cpm [2, 7]: 6,764 cpm and 7,531 cpm
- μg DNA/0.2 mL [2, 7]: 20.3 μg DNA/0.2 mL and 21.2 μg DNA/0.2 mL
- corrected cpm [2, 8]: 8,545 cpm and 11,109 cpm
- cpm [2, 8]: 8,574 cpm and 11,138 cpm
- cpm/μg DNA [2, 9]: 277.4 cpm/μg DNA and 322.0 cpm/μg DNA
- μg DNA/0.2 mL [2, 9]: 30.8 μg DNA/0.2 mL and 34.5 μg DNA/0.2 mL
- corrected cpm [2, 10]: 7,274 cpm and 6,557 cpm
- cpm [2, 10]: 7,303 cpm and 6,586 cpm
- cpm/μg DNA [2, 11]: 208.4 cpm/μg DNA and 186.3 cpm/μg DNA
- μg DNA/0.2 mL [2, 11]: 34.9 μg DNA/0.2 mL and 35.2 μg DNA/0.2 mL
